This note sets out measurements from patent US20260216170A1, “TETRAHYDROISOQUINOLINE HETEROBIFUNCTIONAL BCL-XL DEGRADERS” (Treeline Biosciences, Inc., priority 2023, published 2026).

Each structure is given as a SMILES string. Some results are limits rather than exact numbers.

This experiment concerns the target T1, Human BCL-XL protein (N-terminal HiBiT tagged BCL-XL expressed in HT1080 cells) (Homo sapiens, UniProt Q07817).
T1 construct: expressed in transfected cells; host or cells: HT-1080 (ATCC CCL-121), stably transduced with lentivirus pLV-UBC-N-HiBiT-BCL-XL-PGK-puro and selected with puromycin
The experiment can be described thus: HiBiT Based Degradation Assay. The experiment is classed as cell-based. The following applies: 24 hours incubation; for DC50: BCL-XL degradation, HT1080 cells expressing N-HiBiT-BCL-XL, normalized with DMSO control, geometric mean for multiple data points, read-out: EC50 (24 h); for Ymin (24 h): bottom of BCL-XL degradation curve (remaining HiBiT-BCL-XL signal vs DMSO control), HT1080 cells. The procedure, abridged:
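BCL-XL degradation was read as Nano-Glo HiBiT lytic luminescence relative to DMSO after a 24 h compound treatment of HT1080 cells carrying stably integrated N-HiBiT-BCL-XL. EC50 values come from four-parameter logistic curves, with the hook-curve minimum fixed as bottom, and are geometric means where tested repeatedly.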
A general note: HiBiT is a short tag that completes a luciferase, so light tracks the accessible tagged protein.

T1 sequence (Q07817 whole entry): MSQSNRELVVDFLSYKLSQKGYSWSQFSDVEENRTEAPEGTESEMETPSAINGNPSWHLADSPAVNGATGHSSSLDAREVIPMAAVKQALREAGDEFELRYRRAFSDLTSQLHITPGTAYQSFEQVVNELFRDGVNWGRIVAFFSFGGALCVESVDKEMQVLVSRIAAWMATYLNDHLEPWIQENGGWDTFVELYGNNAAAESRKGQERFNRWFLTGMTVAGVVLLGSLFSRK

For `Cc1c(OC2CC3(CCN(CC(=O)Nc4ccc5c(C6CCC(=O)NC6=O)nn(C)c5c4)CC3)C2)cccc1-c1ccc(N2CCc3ccnc(C(=O)Nc4nc5ccccc5s4)c3C2)nc1C(=O)O` (centres unmarked) [Compound 163, 6-[8-(1,3-benzothiazol-2-ylcarbamoyl)-3,4-dihydro-1H-2,7-naphthyridin-2-yl]-3-[3-[[7-[2-[[3-(2,6-dioxo-3-piperidyl)-1-methyl-indazol-6-yl]amino]-2-oxo-ethyl]-7-azaspiro[3.5]nonan-2-yl]oxy]-2-methyl-phenyl]pyridine-2-carboxylic acid], the DC50 was under 10 nM and the “Ymin (24 h)” value is given as “B (30% ≤ Ymin < 50%)”.
For the compound `Cn1nc(C2CCC(=O)NC2=O)c2ccc(NC(=O)CN3CCC4(CC3)CC(COc3cccc(-c5ccc(N6CCc7cccc(C(=O)Nc8nc9ccccc9s8)c7C6)nc5C(=O)O)c3C(F)(F)F)C4)cc21` (centres unmarked) [Compound 132, 6-(8-(benzo[d]thiazol-2-ylcarbamoyl)-3,4-dihydroisoquinolin-2(1H)-yl)-3-(3-((7-(2-((3-(2,6-dioxopiperidin-3-yl)-1-methyl-1H-indazol-6-yl)amino)-2-oxoethyl)-7-azaspiro[3.5]nonan-2-yl)methoxy)-2-(trifluoromethyl)phenyl)picolinic acid], the DC50 lay within 10 to 100 nM and the “Ymin (24 h)” value is given as “B (30% ≤ Ymin < 50%)”.
As to `Cc1cc(OCCCCC2CCN(CC(=O)Nc3ccc4c(C5CCC(=O)NC5=O)nn(C)c4c3)CC2)ccc1-c1ccc(N2CCc3cccc(C(=O)Nc4nc5ccccc5s4)c3C2)nc1C(=O)O` (centres unmarked) [Compound 116, 6-[8-(1,3-benzothiazol-2-ylcarbamoyl)-3,4-dihydro-1H-isoquinolin-2-yl]-3-[4-[4-[1-[2-[[3-(2,6-dioxo-3-piperidyl)-1-methyl-indazol-6-yl]amino]-2-oxo-ethyl]-4-piperidyl]butoxy]-2-methyl-phenyl]pyridine-2-carboxylic acid], the DC50 is under 10 nM and the “Ymin (24 h)” value is listed as “B (30% ≤ Ymin < 50%)”.
For `Cc1cc(OCCCC2CCN(CC(=O)Nc3cc4c(cc3F)c(C3CCC(=O)NC3=O)nn4C)CC2)ccc1-c1ccc(N2CCc3cccc(C(=O)Nc4nc5ccccc5s4)c3C2)nc1C(=O)O` (centres unmarked) [Compound 109] the same measures were 10 to 100 nM and “C (50% ≤ Ymin < 70%)”.
The matching figures for `Cc1cc(OCCC[C@H]2CCN(CC(=O)Nc3ccc4c(C5CCC(=O)NC5=O)nn(C)c4c3)[C@H](C)C2)ccc1-c1ccc(N2CCc3ccnc(C(=O)Nc4nc5ccccc5s4)c3C2)nc1C(=O)O` (some centres unmarked) [Compound 219c]: under 10 nM and “A (Ymin < 30%)”.
The matching figures for `Cn1nc(C2CCC(=O)NC2=O)c2ccc(NC(=O)CN3CCC4(CC3)CC(Oc3cccc(-c5ccc(N6CCc7ccnc(C(=O)Nc8nc9ccccc9s8)c7C6)nc5C(=O)O)c3C(F)(F)F)C4)cc21` (centres unmarked) [Compound 154, 6-[8-(1,3-benzothiazol-2-ylcarbamoyl)-3,4-dihydro-1H-2,7-naphthyridin-2-yl]-3-[3-[[7-[2-[[3-(2,6-dioxo-3-piperidyl)-1-methyl-indazol-6-yl]amino]-2-oxo-ethyl]-7-azaspiro[3.5]nonan-2-yl]oxy]-2-(trifluoromethyl)phenyl]pyridine-2-carboxylic acid]: under 10 nM and “B (30% ≤ Ymin < 50%)”.
On to `COc1c(NC(=O)CN2CCC3(CC2)CC(COc2ccc(-c4ccc(N5CCc6ccnc(C(=O)Nc7nc8ccccc8s7)c6C5)nc4C(=O)O)c(C(F)(F)F)c2)C3)ccc2c(C3CCC(=O)NC3=O)nn(C)c12` (centres unmarked) [Compound 181, 6-[8-(1,3-benzothiazol-2-ylcarbamoyl)-3,4-dihydro-1H-2,7-naphthyridin-2-yl]-3-[4-[[7-[2-[[3-(2,6-dioxo-3-piperidyl)-7-methoxy-1-methyl-indazol-6-yl]amino]-2-oxo-ethyl]-7-azaspiro[3.5]nonan-2-yl]methoxy]-2-(trifluoromethyl)phenyl]pyridine-2-carboxylic acid], for which the DC50 lay within 10 to 100 nM and the “Ymin (24 h)” value is on record as “B (30% ≤ Ymin < 50%)”.
